According to patent publication US20100216724A1, “USE OF F[…] (196-203 ) AS A […] AGENT” (priority 2007, published 2010):
Where no end group is shown, it is not given here.

Columns and labels:
[1] = Cytotoxicity testing (CellTiter 96) in MRC-5 cells; format: cell-based; details: human, MRC-5 cells (human embryonal lung fibroblasts), 6 days incubation, read-out: % Cell viability
Protocol: Ganciclovir was used as positive control. […] For cytotxicity testing, MRC-5 cells were seeded at 2,500 cells/well in 96 well plates using growth medium. […] The following day, peptide were added and tested in duplicates. After a 6 days incubation period, cell viability was measured using CellTiter 96 Solution (Promega). Plates were incubated for additional 4 hours at 37° C.

Pseudomonas aeruginosa = Pseudomonas aeruginosa assay; format: cell-based; details: Pseudomonas aeruginosa growth; peptide 10 micrograms per ml; read visually
Streptococcus pneumoniae = Streptococcus pneumoniae assay; format: cell-based; details: Streptococcus pneumoniae growth; peptide 10 micrograms per ml; read visually
MRSA = MRSA growth; peptide 10 micrograms per ml; read visually
in vitro = details: human, HepG2-2.2.15 cells
[2] = Cytotoxicity (MTS cell viability) in the HIV-1 assay; details: human, CEM-SS cells
HIV-1IIIB = experiment: HIV-1 antiviral assay (CPE reduction, MTS) in CEM-SS cells; format: cell-based; details: test peptide 10 micrograms per ml, 6 days post-infection

SRNRCNDQ-NH2
viability at 144 h [1]: 100%
% inhibition (Pseudomonas aeruginosa): 0.0%
% inhibition (Streptococcus pneumoniae): 0.0%
% inhibition (MRSA): 0.0%
viability at 144 h, 10 micrograms per ml (in vitro): 100%
viability at 10 micrograms per ml [2]: 100%

Cc1cn([C@H]2C[C@H](N=[N+]=[N-])[C@@H](CO)O2)c(=O)[nH]c1=O [AZT]
% CPE reduction in HIV-1 infected CEM-SS cells (HIV-1IIIB): 99%
